Where two headings read alike, the source gives them in different places. No end group written: not given here.
What was measured:
[1] = cited from earlier work; for antioxidant bioactivity: peptides from sturgeon ovarian protein hydrolysates; for radical scavenging activity: peptides from Thunnus albacares protein hydrolysates; for antioxidant activity and free radical scavenging: peptides from black soybean processing by-products
From the text: Black soybean [Glycine max (L.) Merr.], belonging to the family Fabaceae, subfamily Faboideae, genus Glycine, and subgenus Soja, is a traditional legume crop characterized by its black seed coat. It has been cultivated in China for thousands of years, and China remains the largest producer and consumer of soybeans globally, with substantial production and consumption of black soybean in particular ([8]).

[2] = DPPH radical scavenging assay; type: biochemical; conditions: 50 μL + 450 μL of 0.1 mM DPPH in anhydrous ethanol, dark, room temperature, 30 min, 517 nm, mean ± SD, n = 3
Description: Prior to the assay, the microplate reader was preheated for 1 h. The peptide samples were dissolved in sterile water to prepare a concentration gradient of 0.1, 1, 5, and 10 mg/mL. For the DPPH assay, 50 μL of sterile water and 450 μL of DPPH solution (0.1 mM in anhydrous ethanol) were added to the blank tube. For the control tube, 50 μL of peptide solution and 450 μL of anhydrous ethanol were mixed. For the sample tubes, 50 μL of peptide solution and 450 μL of DPPH solution were combined. All mixtures were incubated in the dark at room temperature for 30 min. Absorbance was measured at 517 nm using a UV–visible spectrophotometer.

[3] = ABTS radical scavenging assay; type: biochemical; conditions: ABTS solution diluted 20-fold with anhydrous ethanol, 30 min dark, 734 nm, mean ± SD, n = 3
Description: For the ABTS assay, ABTS radical solution was prepared by mixing Reagent A and Reagent B (from the assay kit) at a 1:1 volume ratio, followed by incubation in the dark for 12 h. The resulting ABTS solution was diluted 20-fold with anhydrous ethanol before use. The blank, control, and sample solutions were prepared in the same manner as in the DPPH assay, followed by 30 min of dark incubation. Absorbance was measured at 734 nm. The radical scavenging activity was calculated using the formula reported by Thanyaporn Aursuwanna et al. ([22]).

[4] = cited from earlier work; for ABTS radical scavenging rate at 1 mg/mL / DPPH radical scavenging rate at 1 mg/mL: peptide from Glycine max hydrolysate
From the text: (§1) Similarly, Zhang et al. identified two antioxidant peptides, VVFVDRL and […], from Glycine max hydrolysate, both of which contain N-terminal valine residues. […] This enhanced activity was attributed to the presence of repeating amino acids within the peptide sequences, a feature that has also been associated with stronger bioactivity in antioxidant peptid ...

MPO = conditions: cited from earlier work
From the text: as §1

[5] = peptide from cherry seeds; cited from earlier work
[6] = peptide from cherry seeds, molecular dynamics simulation; cited from earlier work
From the text: The root mean square deviation (RMSD) value reflects the deviation of the complex from its initial conformation over the course of the simulation. RMSD fluctuations are directly indicative of conformational stability, with deviations below 0.5 nm generally considered acceptable ([34]). […] In this surface, blue to white regions indicate low free energy value, whereas yellow to red regions reflect higher energy states. […] For the MPO–[…] complex, the energy p ...

HaCaT cells [7] = assay: CCK8 cell viability, concentration screening in HaCaT cells; type: cell-based, human; conditions: 24 h, CCK8, 450 nm, vs control, n = 3
Description: (§2) HaCaT cell recovery, culture, and subculture were performed with reference to the method described by Yusha Zi et al., with some modifications ([23]). For recovery, cryopreserved HaCaT cells were retrieved from liquid nitrogen storage and quickly thawed in a 37 °C water bath with gentle shaking. Just before complete thawing, the tube was removed from the water bath, and the cell suspension was immediately transferred into a 15 mL centrifuge tube containing 9 mL of pre-warmed complete medium. The complete medium consisted of DMEM supplemented with 10% fetal bovine serum (FBS) and 1% penicillin–streptomycin (P/S). Cells were centrifuged at 800 rpm for 5 min at 4 °C. After discarding the supernatant, the cell pellet was resuspended in 5 mL of fresh complete medium and transferred to a culture flask equipped with a ventilated cap. Cells were incubated in a humidified incubator at 37 °C with 5% CO₂ and 95% humidity.
For subculturing, when cell confluence reached approximately 80%, the medium was discarded, and the cells were gently rinsed three times with 2 mL of PBS. Then, 1 mL of 0.25% trypsin solution was added, and the flask was incubated at 37 °C for about 1 min. Once the cells became round and partially detached (as observed under a microscope), 3 mL of complete medium was added to terminate the digestion. The cell suspension was gently pipetted to disperse the cells and transferred to a 15 mL centrifuge tube. After centrifugation at 800 rpm for 5 min at 4 °C, the supernatant was discarded. The pellet was resuspended in fresh medium and seeded into new culture flasks at a ratio of 1:3, followed by incubation under the same culture conditions.
After digestion and resuspension, HaCaT cells were seeded into a 96-well plate at a concentration of 1 × 10^^4 cells/ml, with 100 μL of complete culture medium added to each well. Three wells with no cells were treated with an equal volume of complete culture medium as the blank group. The cells were incubated for 24 h to allow attachment. For the experiment, the control and blank groups were replaced with an equal volume of fresh medium, while the treatment groups were treated with a concentration gradient of 100, 200, 500, 1,000, and 1,500 μg/mL H2O2 and peptide samples. The H2O2 group was incubated for 1 h, while the peptide sample group was incubated for 24 h. After incubation, the original medium was discarded, and 100 μL of CCK8 working solution (prepared from 90% DMEM + 10% CCK8 reagent) was added to each well. The blank group, which contained no cells, was used as the reference. The plate was incubated for an appropriate period, and the absorbance at 450 nm was measured using a microplate reader. Cell viability was calculated using the following formula:
Cell viability(%)=100%×(ODsample−ODblank)/(ODcontrol−ODblank).

HaCaT cells [8] = type: cell-based, human; conditions: 24 h, 1000 μg/mL
Description: as §2, with “humidity. For subculturing, when cell confluence reached approximately 80%, the medium was discarded, and the cells were gently rinsed three times with 2 mL of PBS. […] The plate was incubated for an appropriate period, and the absorbance at 450 nm was measured using a microplate reader. Cell viability was calculated using the following formula: Cell viability(%)=100%×(ODsample−ODblank)/(ODcontrol−ODblank). […] The absorbance was measured and cell viability was calculated under the same conditions.” for “humidity.”

[9] = peptide from foxtail millet prolamin

FEGPPFKF [antioxidant peptide from sturgeon ovarian protein hydrolysates]
antioxidant bioactivity [1]: demonstrated antioxidant bioactivity

KFCSGHA [antioxidant peptide from Thunnus albacares protein hydrolysates]
radical scavenging activity [1]: significant radical scavenging activity

Glutathione [GSH]
DPPH radical scavenging rate at 0.1 mg/mL ([2]; 0.1 mg/mL peptide solution): 27.72 ± 2.86%
DPPH radical scavenging rate at 1 mg/mL ([2]; 1 mg/mL peptide solution): 54.36 ± 3.61%
DPPH radical scavenging rate at 5 mg/mL ([2]; 5 mg/mL peptide solution): 69.01 ± 4.68%
DPPH radical scavenging rate at 10 mg/mL ([2]; 10 mg/mL peptide solution): 84.87 ± 1.39%
ABTS radical scavenging rate at 0.1 mg/mL ([3]; 0.1 mg/mL): 24.52 ± 4.01%
ABTS radical scavenging rate at 1 mg/mL ([3]; 1 mg/mL): 40.76 ± 3.01%
ABTS radical scavenging rate at 5 mg/mL ([3]; 5 mg/mL): 60.28 ± 3.58%
ABTS radical scavenging rate at 10 mg/mL ([3]; 10 mg/mL): 82.92 ± 1.27%

IVPK [peptide from black soybean processing by-products]
antioxidant activity and free radical scavenging [1]: exhibited antioxidant activity and free radical scavenging capacity

LVPK [peptide from black soybean processing by-products]
antioxidant activity and free radical scavenging [1]: exhibited antioxidant activity and free radical scavenging capacity

VIYVVDLR [antioxidant peptide from Glycine max hydrolysate]
ABTS radical scavenging rate at 1 mg/mL [4]: ~50%
DPPH radical scavenging rate at 1 mg/mL [4]: approximately 40%

VVFVDRL [antioxidant peptide from Glycine max hydrolysate]
ABTS radical scavenging rate at 1 mg/mL [4]: ~50%
DPPH radical scavenging rate at 1 mg/mL [4]: approximately 40%

VLIPMP [antioxidant peptide from foxtail millet prolamin]
ABTS IC₅₀ [4, 9]: 2.33 mg/mL
DPPH IC₅₀ [4, 9]: 4.45 mg/mL
number of hydrogen bonds formed with MPO (MPO): higher than that observed for VPNHFNAP
stability of the VLIPMP–MPO complex (MPO; molecular dynamics simulations): confirmed the stability of the VLIPMP–MPO complex
binding free energy calculated by MM-PBSA (MPO; with MPO): -170.8 ± 32 kJ/mol

LYSPH [antioxidant peptide LYSPH, derived from cherry seeds]
docking binding energy [5]: -33.1 kJ/mol
number of hydrogen bonds [6]: 3 ± 1 hydrogen bonds

FDWDRL [antioxidant peptide from sturgeon ovarian protein hydrolysates]
antioxidant bioactivity [1]: demonstrated antioxidant bioactivity

VPNHFNAP
effect on HaCaT cell viability, 1500 μg/mL (HaCaT cells [7]; peptide 1500 μg/mL): a marked decrease
effect on HaCaT cell viability, 100 to 1,000 μg/mL (HaCaT cells [7]; peptide 100 to 1,000 μg/mL): did not cause significant changes in cell viability
HaCaT cell viability, peptide pretreatment then H2O2 (HaCaT cells [8]): 64.38 ± 4.22%

ACGSDGK [antioxidant peptide from Thunnus albacares protein hydrolysates]
radical scavenging activity [1]: significant radical scavenging activity

From PMC12583094, “A novel antioxidant peptide from black soybean [Glycine max (L.) Merr.] with verified MPO interaction and multi-scale antioxidant activity” (Frontiers in Nutrition, 2025)
